From patent publication US8242166B2, “C(10) ethyl ester and C(10) cyclopropyl ester substituted taxanes” (Florida State University Research Foundation, Inc., priority 2008, dated 2012)
Where two headings read alike, the source gives them in different places.

What was measured:
[1] = system: HCT116; assay: MTT cytotoxicity (IC50), HCT116; type: cell-based; conditions: Homo sapiens, HCT-116, 72 h, read-out: IN Vitro IC50 (nm) HCT116
Procedure: (§1) All cell lines were maintained in RPMI-1640 tissue culture medium (TCM, supplemented with antibiotics and 10% fetal bovine serum) and cultured at 37° C. in humidified air containing 5% CO2. To assess the antiproliferative effects of the test compounds, 172 μL of tumor cell suspension (1.45×10^4 cells/ml) were added to each well of a 96-well plate and incubated for 24 h at 37° C. in 5% CO2 in air to allow cells to adhere. Seven 2-fold drug dilutions in TCM/DMSO were performed in triplicate in separate 96-well plates and 28 μL was transferred to the wells containing tumor cells (200 μL final volume/0.1% DMSO). Plates were incubated for 72 h and cell viability was determined by adding 50 μL of warm TCM containing 5 mg/mL MTT (3-[4,5-dimethylthiazol-2-yl]-2,5-diphenyltetrazolium bromide) to each well and incubating for 1 h at 37° C. Plates were processed and the absorbances of the resulting solutions were measured by a plate reader at 570 nm. […] (GraphPad Prism version 4.00 for Windows). Studies were conducted by Taxolog, Inc., Tallahassee, Fla.

[2] = system: DLD-1; assay: MTT cytotoxicity (IC50), DLD-1; type: cell-based; conditions: Homo sapiens
Procedure: as §1, with “Compound 17932 was tested in four of these cell lines, while the remaining compounds were tested in all of these cell lines. All” for “All”

[3] = system: HT29; assay: MTT cytotoxicity (IC50), HT29; type: cell-based; conditions: Homo sapiens, HT-29, 72 h, read-out: IN Vitro IC50 (nm) HT29
Procedure: as §1, with “Compound 17932 was tested in four of these cell lines, while the remaining compounds were tested in all of these cell lines. All” for “All”

[4] = system: 786-0; assay: MTT cytotoxicity (IC50), 786-0; type: cell-based; conditions: Homo sapiens
Procedure: as §1, with “Compound 17932 was tested in four of these cell lines, while the remaining compounds were tested in all of these cell lines. All” for “All”

[5] = system: TK-10; assay: MTT cytotoxicity (IC50), TK-10; type: cell-based; conditions: Homo sapiens, 72 h, read-out: IN Vitro IC50 (nm) TK10
Procedure: as §1, with “Compound 17932 was tested in four of these cell lines, while the remaining compounds were tested in all of these cell lines. All” for “All”

[6] = system: OVCAR4; assay: MTT cytotoxicity (IC50), OVCAR4; type: cell-based; conditions: Homo sapiens, OVCAR-4, 72 h, read-out: IN Vitro IC50 (nm) OVCAR4
Procedure: as §1, with “Compound 17932 was tested in four of these cell lines, while the remaining compounds were tested in all of these cell lines. All” for “All”

[7] = system: HOP-18; assay: MTT cytotoxicity (IC50), HOP-18; type: cell-based; conditions: Homo sapiens, 72 h, read-out: IN Vitro IC50 (nm) HOP18
Procedure: as §1, with “Compound 17932 was tested in four of these cell lines, while the remaining compounds were tested in all of these cell lines. All” for “All”

[8] = system: SNB-19; assay: MTT cytotoxicity (IC50), SNB-19; type: cell-based; conditions: Homo sapiens, 72 h, read-out: IN Vitro IC50 (nm) SNB19
Procedure: as §1, with “Compound 17932 was tested in four of these cell lines, while the remaining compounds were tested in all of these cell lines. All” for “All”

[9] = system: HT29 human tumor xenografts; assay: HT29 xenograft study e212, oral and i.v. (Example 26); conditions: every four day schedule for four doses
Excerpt: The formulation for oral studies was an ethanol and Cremophor formulation while the formulation for compound 18365 and compound 19244 dosed i.v. was 5% ethanol and 95% Liposyn II 20%.

[10] = system: human A375 melanoma xenograft; assay: A375 xenograft study e209 (Example 27); conditions: 30 mg/kg iv q4d × 4
Procedure: The endpoint was a tumor volume of 2,000 mm^3 and the study was terminated on Day 56. Efficacy was assessed by tumor growth delay and the number of partial and complete regressions. Animals with a CR that persisted through Day 56 were classified as long-term tumor-free survivors (TFS).

[11] = system: human MX-1 breast carcinoma; assay: MX1 xenograft study e219R1, i.v. single dose (Example 17); conditions: for CR (complete regression) / NTR (non-treatment-related death) / PR (partial regression) / TFS (tumor-free survivor) / TR (treatment-related death): n=5

Structure (SMILES): CC(=O)O[C@@]12CO[C@@H]1C[C@H](O)[C@@]1(C)C(=O)[C@H](OC(=O)C3CC3)C3=C(C)[C@@H](OC(=O)[C@H](O)[C@@H](NC(=O)OC4CCC4)c4cccs4)C[C@@](O)([C@@H](OC(=O)c4ccccc4)C12)C3(C)C (stereo partly drawn) [Compound 18365]
- IC50 [1]: 0.4 nM
- IC50 ([2]; MTT, 72 h, read-out: IN Vitro IC50 (nm) DLD1): 1.1 nM
- IC50 ([2]; Resistance MDR1+, read-out: DLD1 Colon (Table 4, quantity not named; IC50 values as Table 2)): 1.1 nM
- IC50 [3]: 0.5 nM
- IC50 ([4]; MTT, 72 h, read-out: IN Vitro IC50 (nm) 786-0): 1.1 nM
- IC50 ([4]; Resistance MDR1+, read-out: 786-0 Renal (Table 4, quantity not named; IC50 values as Table 2)): 1.1 nM
- IC50 [5]: 0.5 nM
- IC50 [6]: 1.1 nM
- IC50 [7]: 0.7 nM
- IC50 [8]: 1.1 nM
- activity in the HT29 xenograft tumor model [9]: oral and IV activity
- BW Nadir [10]: −9.8% (14)
- MTV(n), Day 56 [10]: 0.00 (6) mm^3
- CR (complete regression) ([10]; n=6): 5
- NTR NTRa/u ([10]; n=6): 0
- NTR NTRm ([10]; n=6): 0
- PR (partial regression) ([10]; n=6): 0
- TFS (tumor-free survivor) ([10]; n=6): 5
- TR (treatment-related death) ([10]; n=6): 0
- % TGD ([10]; vehicle EL): 210.08%
- Median TTE ([10]; vehicle EL): 56 days
- T-C ([10]; vehicle EL): 37.94 days
- % TGD ([11]; 7.5 mg/kg iv qd × 1): 12.92%
- BW Nadir ([11]; 7.5 mg/kg iv qd × 1): −3.8% (4)
- Median TTE ([11]; 7.5 mg/kg iv qd × 1): 36.29 days
- T-C ([11]; 7.5 mg/kg iv qd × 1): 4.15 days
- activity (statistical significance) ([11]; 7.5 mg/kg iv qd × 1): non-significant activity
- CR (complete regression) ([11]; 7.5 mg/kg iv qd × 1): 0
- NTR (non-treatment-related death) ([11]; 7.5 mg/kg iv qd × 1): 0
- PR (partial regression) ([11]; 7.5 mg/kg iv qd × 1): 0
- TFS (tumor-free survivor) ([11]; 7.5 mg/kg iv qd × 1): 0
- TR (treatment-related death) ([11]; 7.5 mg/kg iv qd × 1): 0
- % TGD ([11]; 15 mg/kg iv qd × 1): 76.26%
- BW Nadir ([11]; 15 mg/kg iv qd × 1): −6.8% (5)
- MTV (n), Day 60 ([11]; 15 mg/kg iv qd × 1): 1098.50 (1) mm^3
- Median TTE ([11]; 15 mg/kg iv qd × 1): 56.65 days
- T-C ([11]; 15 mg/kg iv qd × 1): 24.51 days
- maximum group mean BW loss ([11]; 15 mg/kg iv qd × 1): 6.8%
- CR (complete regression) ([11]; 15 mg/kg iv qd × 1): 2
- NTR (non-treatment-related death) ([11]; 15 mg/kg iv qd × 1): 0
- PR (partial regression) ([11]; 15 mg/kg iv qd × 1): 1
- TR (treatment-related death) ([11]; 15 mg/kg iv qd × 1): 0
- % TGD ([11]; 30 mg/kg iv qd × 1): 89.79%
- BW Nadir ([11]; 30 mg/kg iv qd × 1): −16.0% (5)
- MTV (n), Day 60 ([11]; 30 mg/kg iv qd × 1): 0.00 (5) mm^3
- Median TTE ([11]; 30 mg/kg iv qd × 1): 61 days
- T-C ([11]; 30 mg/kg iv qd × 1): 28.86 days
- maximum group mean BW loss ([11]; 30 mg/kg iv qd × 1): 16%
- CR (complete regression) ([11]; 30 mg/kg iv qd × 1): 5
- NTR (non-treatment-related death) ([11]; 30 mg/kg iv qd × 1): 0
- PR (partial regression) ([11]; 30 mg/kg iv qd × 1): 0
- TFS (tumor-free survivor) ([11]; 30 mg/kg iv qd × 1): 5
- TR (treatment-related death) ([11]; 30 mg/kg iv qd × 1): 0
- minimal effective dose ([11]; iv qd × 1, lowest dose with statistically significant results and at least one D61 survivor or regression): 15 mg/kg
